Results as given in ChEMBL document CHEMBL1697821, “Development of a phospholipidosis database and predictive quantitative structure-activity relationship (QSAR) models” (Toxicol Mech Methods, 2008).

Tested on: Phospholipidosis
Experiment: Literature-mined public compounds from Kruhlak et al phospholipidosis modelling dataset

| SMILES | Phospholipidosis |
| --- | --- |
| C[C@@H]1O[C@@H](O[C@@H]2C=C3CC[C@@H]4[C@H](CC[C@]5(C)[C@@H](c6ccc(=O)oc6)CC[C@]45O)[C@@]3(C)CC2)[C@H](O)[C@H](O)[C@H]1O [PROSCILLARIDIN] | Negative: based on the absence of positive reported data from WMDD |
| N=C(N)N1CCc2ccccc2C1 [DEBRISOQUIN] | Negative: based on the absence of positive reported data from WMDD |
| COC(=O)c1ccc(O)cc1 [METHYLPARABEN] | Negative: based on the absence of positive reported data from WMDD |
| CCCCc1oc2ccccc2c1C(=O)c1cc(I)c(OCCN(CC)CC)c(I)c1 [AMIODARONE] | Positive: strong inducer confirmed by electron microscopy |
| COCCOC(=O)C1=C(C)NC(C)=C(C(=O)OC(C)C)C1c1cccc([N+](=O)[O-])c1 (stereo not drawn) [NIMODIPINE] | Negative: based on the absence of positive reported data from WMDD |
| CCN(CC)CCN1C(=O)CN=C(c2ccccc2F)c2cc(Cl)ccc21 [FLURAZEPAM] | Negative: based on the absence of positive reported data from WMDD |
| Sc1ncnc2nc[nH]c12 [MERCAPTOPURINE ANHYDROUS] | Negative: based on the absence of positive reported data from WMDD |
| CC1(C)N=C(N)N=C(N)N1OCc1ccc(Cl)c(Cl)c1 [CLOCIGUANIL] | Positive: weak inducer based on presence of foamy macrophages and cytoplasmic vacuolations |
| CN[C@@H](C)[C@@H](O)c1ccccc1 [PSEUDOEPHEDRINE] | Negative: based on the absence of positive reported data from WMDD |
| CCN(CC)CCCC(C)Nc1ccnc2cc(Cl)ccc12 (stereo not drawn) [CHLOROQUINE] | Positive: strong inducer confirmed by electron microscopy |
| C[C@]12C=CC(=O)C=C1CC[C@@H]1[C@@H]2[C@@H](O)C[C@@]2(C)[C@H]1CC[C@]2(O)C(=O)COC(=O)CCC(=O)O [PREDNISOLONE HEMISUCCINATE] | Negative: based on the absence of positive reported data from WMDD |
| Cc1ccc(Cl)c(OCC(O)CNC(C)(C)C)c1 (stereo not drawn) [BUPRANOLOL] | Negative: based on the absence of positive reported data from WMDD |
| O[C@@H]([C@H](O)[C@H](O)CBr)[C@H](O)CBr [MITOBRONITOL] | Negative: based on the absence of positive reported data from WMDD |
| CC(=O)OCC(=O)[C@@]1(O)[C@@H](C)C[C@H]2[C@@H]3CCC4=CC(=O)C=C[C@]4(C)[C@@]3(F)[C@@H](O)C[C@@]21C [BETAMETHASONE ACETATE] | Negative: based on the absence of positive reported data from WMDD |
| C#CCN(C)[C@H](C)Cc1ccccc1 [SELEGILINE] | Negative: based on the absence of positive reported data from WMDD |
| CN[C@@H]1[C@@H](O)[C@@H](O[C@@H]2[C@@H](O)[C@H](O[C@H]3O[C@H](C(C)N)CC[C@H]3N)[C@@H](N)C[C@H]2N)OC[C@]1(C)O (stereo partly drawn) [GENTAMICIN C2] | Positive: strong inducer confirmed by electron microscopy |
| CC(Cc1ccccc1)NCCC(c1ccccc1)c1ccccc1 (stereo not drawn) [PRENYLAMINE] | Positive: weak inducer based on presence of foamy macrophages and cytoplasmic vacuolations |
| CN1Cc2c(N)cccc2C(c2ccccc2)C1 (stereo not drawn) [NOMIFENSINE] | Negative: based on the absence of positive reported data from WMDD |
| NNc1nnc(NN)c2ccccc12 [DIHYDRALAZINE] | Negative: based on the absence of positive reported data from WMDD |
| CC(=O)c1ccc2c(c1)N(CCCN1CCN(CCO)CC1)c1ccccc1S2 [ACETOPHENAZINE] | Negative: based on the absence of positive reported data from WMDD |

| SMILES | Phospholipidosis |
| --- | --- |
| CC(CN(C)C)CN1c2ccccc2CCc2ccccc21 (stereo not drawn) [TRIMIPRAMINE] | Positive: weak inducer based on presence of foamy macrophages and cytoplasmic vacuolations |
| Cc1ccc(C(=O)Nc2ccc(S(=O)(=O)O)c3cc(S(=O)(=O)O)cc(S(=O)(=O)O)c23)cc1NC(=O)c1cccc(NC(=O)Nc2cccc(C(=O)Nc3cc(C(=O)Nc4ccc(S(=O)(=O)O)c5cc(S(=O)(=O)O)cc(S(=O)(=O)O)c45)ccc3C)c2)c1 [SURAMIN] | Positive: weak inducer based on presence of foamy macrophages and cytoplasmic vacuolations |
| CN1CCN(C(c2ccccc2)c2ccc(Cl)cc2)CC1 (stereo not drawn) [CHLORCYCLIZINE] | Positive: strong inducer confirmed by electron microscopy |
| CS(=O)(=O)c1ccc([C@@H](O)[C@@H](CO)NC(=O)C(Cl)Cl)cc1 [THIAMPHENICOL] | Negative: based on the absence of positive reported data from WMDD |
| N=C(N)c1ccc(/C=C/c2ccc(C(=N)N)cc2O)cc1 [HYDROXYSTILBAMIDINE] | Negative: based on the absence of positive reported data from WMDD |
| CCN(CC)CCc1nc(-c2ccccc2)no1 [OXOLAMINE] | Negative: based on the absence of positive reported data from WMDD |
| C=CCC1(CC(C)C)C(=O)NC(=O)NC1=O [BUTALBITAL] | Negative: based on the absence of positive reported data from WMDD |
| OCC(Br)(Br)Br [TRIBROMOETHANOL] | Negative: based on the absence of positive reported data from WMDD |
| CO/N=C(\C(=O)N[C@@H]1C(=O)N2C(C(=O)O)=C(CSc3nc(=O)c(=O)[nH]n3C)CS[C@H]12)c1csc(N)n1 [CEFTRIAXONE] | Negative: based on the absence of positive reported data from WMDD |
| COC(=O)CCc1ccc(OCC(O)CNC(C)C)cc1 (stereo not drawn) [ESMOLOL] | Negative: based on the absence of positive reported data from WMDD |
| COc1cc(C(=O)N2CCOCC2)cc(OC)c1OC [TRIMETOZINE] | Negative: based on the absence of positive reported data from WMDD |
| O=C(O)c1cc(O)c2c(c1)[C@@H]([C@H]1c3cc(C(=O)O)cc(O)c3C(=O)c3c(O[C@@H]4O[C@H](CO)[C@@H](O)[C@H](O)[C@H]4O)cccc31)c1cccc(O[C@@H]3O[C@H](CO)[C@@H](O)[C@H](O)[C@H]3O)c1C2=O [SENNOSIDE B] | Negative: based on the absence of positive reported data from WMDD |
| CC(=O)Nc1c(I)c(C(=O)O)c(I)c(N(C)C(C)=O)c1I [METRIZOIC ACID] | Negative: based on the absence of positive reported data from WMDD |
| CCCCc1ncc(/C=C(\Cc2cccs2)C(=O)O)n1Cc1ccc(C(=O)O)cc1 [EPROSARTAN] | Negative: based on the absence of positive reported data from WMDD |
| CCCN(CC)C(CC)C(=O)Nc1c(C)cccc1C (stereo not drawn) [ETIDOCAINE] | Negative: based on the absence of positive reported data from WMDD |
| NS(=O)(=O)c1cc2c(cc1C(F)(F)F)NCNS2(=O)=O [HYDROFLUMETHIAZIDE] | Negative: based on the absence of positive reported data from WMDD |
| CN(C/C=C/C#CC(C)(C)C)Cc1cccc2ccccc12 [TERBINAFINE] | Negative: based on the absence of positive reported data from WMDD |
| CCOC(=O)c1cncn1[C@H](C)c1ccccc1 [ETOMIDATE] | Negative: based on the absence of positive reported data from WMDD |
| CC(=O)[C@@]1(O)CC[C@H]2[C@@H]3C=C(Cl)C4=CC(=O)[C@@H]5C[C@@H]5[C@]4(C)[C@H]3CC[C@@]21C [CYPROTERONE] | Negative: based on the absence of positive reported data from WMDD |
| Clc1cccc(Cl)c1N=C1NCCN1 [CLONIDINE] | Negative: based on the absence of positive reported data from WMDD |

| SMILES | Phospholipidosis |
| --- | --- |
| C[N+]1(C)CCN(CC(O)(c2ccccc2)C2CCCCC2)CC1 (stereo not drawn) [HEXOCYCLIUM] | Negative: based on the absence of positive reported data from WMDD |
| CCC(c1ccccc1)c1c(O)c2ccccc2oc1=O (stereo not drawn) [PHENPROCOUMON] | Negative: based on the absence of positive reported data from WMDD |
| O=P(O)(O)OCC(O)CO (stereo not drawn) | Negative: based on the absence of positive reported data from WMDD |
| O=C(O)CCC(=O)c1ccc(C2CCCCC2)c(Cl)c1 [BUCLOXIC ACID] | Negative: based on the absence of positive reported data from WMDD |
| Cc1ccc2c(-c3ccccc3)nc(=O)n(C(C)C)c2c1 [PROQUAZONE] | Negative: based on the absence of positive reported data from WMDD |
| NC[C@@H]1O[C@H](O[C@H]2[C@@H](O)[C@H](O[C@@H]3[C@@H](O)[C@H](N)C[C@H](N)[C@H]3O[C@H]3O[C@H](CN)[C@@H](O)[C@H](O)[C@H]3N)O[C@@H]2CO)[C@H](N)[C@@H](O)[C@@H]1O [FRAMYCETIN] | Negative: based on the absence of positive reported data from WMDD |
| C=C[C@H]1C[N@@]2CC[C@H]1C[C@@H]2[C@@H](O)c1ccnc2ccc(OC)cc12 [QUINIDINE] | Positive: weak inducer based on presence of foamy macrophages and cytoplasmic vacuolations |
| O=C(CCCN1CCC(O)(c2cccc(C(F)(F)F)c2)CC1)c1ccc(F)cc1 [TRIFLUPERIDOL] | Negative: based on the absence of positive reported data from WMDD |
| CCC1NC(=O)c2cc(S(N)(=O)=O)c(Cl)cc2N1 (stereo not drawn) [QUINETHAZONE] | Negative: based on the absence of positive reported data from WMDD |
| CCC1(C)OC(=O)N(C)C1=O (stereo not drawn) [PARAMETHADIONE] | Negative: based on the absence of positive reported data from WMDD |
| CC(C)(C(=O)c1cccnc1)c1cccnc1 [METYRAPONE] | Negative: based on the absence of positive reported data from WMDD |
| CN(C)CCN(Cc1ccccc1)c1ccccn1 [TRIPELENNAMINE] | Positive: weak inducer based on presence of foamy macrophages and cytoplasmic vacuolations |
| CC(C)(C)NCC(O)c1cc(O)cc(O)c1 (stereo not drawn) [TERBUTALINE] | Negative: based on the absence of positive reported data from WMDD |
| NC(=O)c1ccccc1 [BENZAMIDE] | Positive: weak inducer based on presence of foamy macrophages and cytoplasmic vacuolations |
| NS(=O)(=O)c1cc(C(=O)O)c(NCc2ccco2)cc1Cl [FUROSEMIDE] | Negative: confirmed by electron microscopy |
| O=NN(CCCl)C(=O)NCCCl [CARMUSTINE] | Negative: based on the absence of positive reported data from WMDD |
| C[N+](C)(C)C[C@H](O)CC(=O)[O-] [LEVOCARNITINE] | Negative: based on the absence of positive reported data from WMDD |
| COc1ccccc1OCC(O)COC(N)=O (stereo not drawn) [METHOCARBAMOL] | Negative: based on the absence of positive reported data from WMDD |
